From publication PMC11435058, “Synthesis of New Thiazole-Privileged Chalcones as Tubulin Polymerization Inhibitors with Potential Anticancer Activities” (Pharmaceuticals, 2024)

Experiments:
SNB-19 = assay: cells; settings: Homo sapiens
M14 = assay: NCI-60 anticancer screen (SRB; single dose and five doses); settings: Homo sapiens
MDA-MB-468 = assay: as above; assay type: cell-based, human
In short: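 NCI panel of about 60 human tumor cell lines treated with compound at a single concentration (10μM) for 48 h. Growth measured by SRB protein staining and expressed as percent growth of treated versus untreated control cells.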

A498 = assay: as above; settings: Homo sapiens
ACHN = assay: as above; settings: Homo sapiens
OVCAR-3 = assay: cells; settings: Homo sapiens
OVCAR-4 = assay: NCI-60 anticancer screen (SRB; single dose and five doses); settings: Homo sapiens
SK-MEL-28 = assay: as above; settings: Homo sapiens
HCC-2998 = assay: as above; settings: Homo sapiens
NCI-H522 = assay: as above; settings: Homo sapiens
NCI-H460 = assay: as above; settings: Homo sapiens
786-0 = assay: as above; settings: Homo sapiens
SNB-75 = assay: as above
UO-31 = assay: as above; settings: Homo sapiens
TK-10 = assay: as above; settings: Homo sapiens
SN12C = assay: as above; settings: Homo sapiens
SW-620 = assay: as above; settings: Homo sapiens
OVCAR-8 = assay: as above; settings: Homo sapiens
U251 = assay: as above; settings: Homo sapiens
EKVX = assay: as above; settings: Homo sapiens
SF-539 = assay: as above; settings: Homo sapiens
HCT-116 = assay: as above; settings: Homo sapiens
NCI-H23 = assay: as above; settings: Homo sapiens
MDA-MB-435 = assay: as above; settings: Homo sapiens
SK-OV-3 = assay: as above; settings: Homo sapiens
[1] = 48 h, read-out: Growth Percentage

## Cc1[nH]c(=S)sc1C(=O)/C=C/c1cccc(Cl)c1 [2e, (E)-3-(3-Chlorophenyl)-1-(4-Methyl-2-Thioxo-2,3-Dihydrothiazol-5-yl)Prop-2-En-1-One]
SNB-19; SNB-19
  IC50: 17 µM
SNB-19; SNB-19, read-out: LC50
  CC50: 49 µM
SNB-19; SNB-19, read-out: TGI
  IC (TGI): 21.4 µM
M14; M14
  GI50: 2.88 µM
  IC50: 4.17 µM
M14; M14, 48 h, read-out: Growth Percentage
  activity at 10 µM: 40.2%
M14; M14, read-out: TGI
  IC (TGI): 9.55 µM
MDA-MB-468; Homo sapiens, 48 h, MDA-MB-468, dose of 10 μM, read-out: Growth Percentage
  activity at 10 µM: -7.12%
MDA-MB-468; Homo sapiens, MDA-MB-468, MDA-MB-468, Breast Cancer, five dose
  IC50: 12.6 µM
MDA-MB-468; Homo sapiens, MDA-MB-468, Breast Cancer, five dose
  GI50: 3.8 µM
MDA-MB-468; Homo sapiens, MDA-MB-468, Breast Cancer, five dose, read-out: LC50 (the source's name)
  CC50: 46.8 µM
MDA-MB-468; MDA-MB-468, Breast Cancer, five dose
  TGI: 15.85 µM
A498; A498
  GI50: 19.5 µM
  IC50: 47.9 µM
A498; A498, 48 h, read-out: Growth Percentage, A498, dose of 10 μM
  activity at 10 µM: 98%
A498; A498, read-out: LC50
  CC50: 91.2 µM
A498; A498, read-out: TGI
  IC (TGI): 42.7 µM
ACHN
  GI50: 2.29 µM
  IC50: 3.72 µM
ACHN; [1]
  activity at 10 µM: 22.9%
ACHN; read-out: LC50
  CC50: 21.4 µM
ACHN; read-out: TGI
  IC (TGI): 6.03 µM
OVCAR-3; OVCAR-3
  GI50: 2.29 µM
  IC50: 4.17 µM
OVCAR-3; OVCAR-3, 48 h, read-out: Growth Percentage
  activity at 10 µM: 8.26%
OVCAR-3; OVCAR-3, read-out: LC50
  CC50: 22.9 µM
OVCAR-3; OVCAR-3, read-out: TGI
  IC (TGI): 6.03 µM
OVCAR-4; OVCAR-4
  GI50: 4.47 µM
  IC50: 12.9 µM
OVCAR-4; OVCAR-4, 48 h, read-out: Growth Percentage
  activity at 10 µM: 31.7%
OVCAR-4; OVCAR-4, read-out: LC50
  CC50: > 100 µM
OVCAR-4; OVCAR-4, read-out: TGI
  IC (TGI): 41.7 µM
SK-MEL-28; SK-MEL-28
  GI50: 2.14 µM
  IC50: 4.07 µM
SK-MEL-28; SK-MEL-28, 48 h, read-out: Growth Percentage
  activity at 10 µM: 44.7%
SK-MEL-28; SK-MEL-28, read-out: LC50
  CC50: 13.5 µM
SK-MEL-28; SK-MEL-28, read-out: TGI
  IC (TGI): 4.9 µM
HCC-2998; HCC 2998
  GI50: 2.57 µM
  IC50: 4.37 µM
HCC-2998; HCC 2998, 48 h, read-out: Growth Percentage
  activity at 10 µM: 13.9%
HCC-2998; HCC 2998, read-out: LC50
  CC50: 28.2 µM
NCI-H522; NCI-H522
  GI50: 4.57 µM
  IC50: 11.5 µM
NCI-H522; NCI-H522, 48 h, read-out: Growth Percentage
  activity at 10 µM: 22%
NCI-H522; NCI-H522, read-out: LC50
  CC50: 45.7 µM
NCI-H522; NCI-H522, read-out: TGI
  IC (TGI): 17.4 µM
NCI-H460; NCI-H460
  GI50: 2.75 µM
  IC50: 3.55 µM
NCI-H460; NCI-H460, 48 h, read-out: Growth Percentage
  activity at 10 µM: 12.1%
NCI-H460; NCI-H460, read-out: LC50
  CC50: 45.7 µM
NCI-H460; NCI-H460, read-out: TGI
  IC (TGI): 7.59 µM
786-0; 786-0
  GI50: 2.51 µM
  IC50: 4.07 µM
786-0; 786-0, 48 h, read-out: Growth Percentage
  activity at 10 µM: 13.3%
786-0; 786-0, read-out: LC50
  CC50: 37.1 µM
786-0; 786-0, read-out: TGI
  IC (TGI): 6.31 µM
SNB-75; Homo sapiens, SNB-75
  GI50: 1.66 µM
  IC50: 3.8 µM
SNB-75; Homo sapiens, SNB-75, 48 h, read-out: Growth Percentage
  activity at 10 µM: 8.74%
SNB-75; five-dose, CNS Cancer SNB-75
  TGI: 3.63 µM
UO-31; UO-31
  GI50: 1.55 µM
  IC50: 2.88 µM
UO-31; UO-31, 48 h, read-out: Growth Percentage
  activity at 10 µM: 34.3%
UO-31; UO-31, read-out: TGI
  IC (TGI): 3.09 µM
TK-10; TK-10
  GI50: 19.5 µM
  IC50: 45.7 µM
TK-10; TK-10, read-out: LC50
  CC50: > 100 µM
TK-10; TK-10, read-out: TGI
  IC (TGI): 47.9 µM
SN12C
  GI50: 2 µM
  IC50: 3.55 µM
SN12C; [1]
  activity at 10 µM: 12%
SN12C; read-out: LC50
  CC50: 8.91 µM
SN12C; read-out: TGI
  IC (TGI): 4.27 µM
SW-620; SW-620
  GI50: 1.91 µM
  IC50: 3.16 µM
SW-620; SW-620, 48 h, read-out: Growth Percentage
  activity at 10 µM: 8.6%
SW-620; SW-620, read-out: LC50
  CC50: 7.59 µM
SW-620; SW-620, read-out: TGI
  IC (TGI): 3.8 µM
OVCAR-8; OVCAR-8
  GI50: 2.69 µM
  IC50: 3.89 µM
OVCAR-8; OVCAR-8, 48 h, read-out: Growth Percentage
  activity at 10 µM: 10.4%
OVCAR-8; OVCAR-8, read-out: LC50
  CC50: > 100 µM
OVCAR-8; OVCAR-8, read-out: TGI
  IC (TGI): 7.59 µM
U251; U-251
  GI50: 1.91 µM
  IC50: 3.31 µM
U251; U-251, 48 h, read-out: Growth Percentage
  activity at 10 µM: 12.1%
U251; U-251, read-out: LC50
  CC50: 7.24 µM
U251; U-251, read-out: TGI
  IC (TGI): 3.72 µM
EKVX
  GI50: 10.5 µM
  IC50: 24 µM
EKVX; [1]
  activity at 10 µM: 34.7%
EKVX; read-out: LC50
  CC50: 95.5 µM
EKVX; read-out: TGI
  IC (TGI): 31.6 µM
SF-539; SF-539
  GI50: 2 µM
  IC50: 3.63 µM
SF-539; SF-539, 48 h, read-out: Growth Percentage
  activity at 10 µM: -10.7%
SF-539; SF-539, read-out: TGI
  IC (TGI): 4.07 µM
HCT-116; HCT-116
  GI50: 1.82 µM
  IC50: 2.95 µM
HCT-116; HCT-116, 48 h, read-out: Growth Percentage
  activity at 10 µM: 3.28%
HCT-116; HCT-116, read-out: LC50
  CC50: 7.41 µM
HCT-116; HCT-116, read-out: TGI
  IC (TGI): 3.63 µM
NCI-H23; NCI-H23
  GI50: 2.09 µM
  IC50: 3.63 µM
NCI-H23; NCI-H23, 48 h, read-out: Growth Percentage
  activity at 10 µM: 18%
NCI-H23; NCI-H23, read-out: LC50
  CC50: 12.9 µM
NCI-H23; NCI-H23, read-out: TGI
  IC (TGI): 4.68 µM
MDA-MB-435; MDA-MB-435
  GI50: 2.09 µM
  IC50: 3.55 µM
MDA-MB-435; MDA-MB-435, 48 h, read-out: Growth Percentage
  activity at 10 µM: 17.3%
MDA-MB-435; MDA-MB-435, read-out: LC50
  CC50: 17 µM
MDA-MB-435; MDA-MB-435, read-out: TGI
  IC (TGI): 5.01 µM
SK-OV-3; SK-OV-3
  GI50: 17.4 µM
  IC50: 51.3 µM
SK-OV-3; SK-OV-3, 48 h, read-out: Growth Percentage
  activity at 10 µM: 59.9%
SK-OV-3; SK-OV-3, read-out: LC50
  CC50: > 100 µM
SK-OV-3; SK-OV-3, read-out: TGI
  IC (TGI): > 100 µM
